Assay [1] relates to MIA-PACA2 pancreatic cancer cell lines. Kind of assay: Cell proliferation assay, MIA-PACA2, alternate assay conditions (DAPI staining, 4 days). The assay is classed as cell-based. The following applies: Homo sapiens; for inhibition at 10 µM: MIA PaCa-2, 96 h, tested at 10 μM (*), 4 days, alternate conditions. On the procedure: (§1) Cell lines: Tumor-derived pancreatic cancer cell lines MIA-PACA2 were purchased from ATCC and grown in complete DMEM-High Glucose medium supplemented with penicillin (100 U/mL), streptomycin (100 μg/mL), and 10% heat-inactivated FBS at 37° C. in a humidified incubator with 5% CO2.
Method: Cells are plated at 4000 cells/well density in 96-wells plate. The next day tested small molecules are added to the cells in the final concentration of 10 μM in the presence of 0.3% DMSO and 10% FBS. After small molecules addition, cells are incubated for 4 days at 37° C. in a humidified incubator with 5% CO2. For IC50 value determination, serial dilutions of compounds were added to cells under the same conditions.
Assay: At the end of the incubation period, cell cultures are fixed with a 50-50 mixture (v/v) acetone-methanol for 10 minutes at −20° C., followed by rehydration in PBS for 10 minutes at room temperature. After rehydration, cells are stained with DAPI (1 μg/ml) in PBS for 10 minutes at room temperature, followed by 3 washes with PBS. After staining, DAPI fluorescence is recorded (358 nm excitation/461 nm emission) with the 96-well plate reader Molecular Devices Spectramax M3; degree of small mole-cule-dependent proliferation inhibition is calculated from raw data assuming No Serum cells value as 100%.

Another assay has as its target KRas G12D mutant protein (Homo sapiens (Human), UniProt P01116, G12D). Kind of assay: Ras GTP binding domain inhibition assay (labeled GTP). On the procedure:
The following method was developed as specific assay for KRas G12D mutant protein.
(§2) Buffer-I: • 50 mM Tris, pH 7.5 • 150 mM NaCl (optional) • 1 mM MgCl2 • 1 mM DTT. • KRas G12D mutant protein was expressed as a His-tagged protein. Purified His-KRas G12D protein was diluted in buffer-I to a final concentration of 3-10 μg/ml. • 200 μl of the diluted His-KRas G12D protein was added to a nickel coated 96 well plate and incubated overnight at 4° C. • The next day, wells were washed 3× in 200 μl of Buffer-I. • Then 200 μl of Buffer-I were added to each well in the presence of 1% DMSO. • Tested compounds were added to the protein-coated wells at a concentration of 20 μM, and incubated for 3 hours at room temperature. While performing IC50 measurements a serial dilution of all tested concentrations was prepared.
(§3) Then 22 μl of Cy3-GTP or Cy5-GTP was added to each well. The labeled GTP was incubated for 45 min. at room temperature. • Following GTP incubation, wells were washed 3× in Buffer-I, and 200 μl of Buffer-I were added to each well. • Following washes, the amount of bound labeled-GTP was measured with an Eppendorf AF2200 plate reader.

For a further assay, the target named is KRas G12C mutant (Homo sapiens (Human), UniProt P01116, G12C). The assay is described as above. On the procedure:
as §2, §3
(§4) By substituting KRas G12D mutant protein with KRas G12C mutant, KRas wild type, KRas Q61H mutant, KRas G12D/Q61H double mutant or KRas G12C/Q61H double mutant under the assay conditions described above, KRas G12C mutant KRas wild type, KRas Q61H mutant, KRas G12D/Q61H double mutant and KRas G12C/Q61H double mutant inhibition, respectively, were each determined.

Assay [2] addresses KRas G12C/Q61H double mutant (Homo sapiens (Human), UniProt P01116, G12C/Q61H). The assay is described as above. On the procedure:
as §2, §3, §4

For assay [3], the target named is KRas G12D/Q61H double mutant (Homo sapiens (Human), UniProt P01116, G12D/Q61H). The assay is described as above. On the procedure:
as §2, §3, §4

The target in another assay is KRas Q61H mutant (Homo sapiens (Human), UniProt P01116, Q61H). Described as above. On the procedure: as §2, §3, §4
KRas Q61H mutant, sequence (P01116-2 other isoform, or with tags, fused parts or gaps Q61H): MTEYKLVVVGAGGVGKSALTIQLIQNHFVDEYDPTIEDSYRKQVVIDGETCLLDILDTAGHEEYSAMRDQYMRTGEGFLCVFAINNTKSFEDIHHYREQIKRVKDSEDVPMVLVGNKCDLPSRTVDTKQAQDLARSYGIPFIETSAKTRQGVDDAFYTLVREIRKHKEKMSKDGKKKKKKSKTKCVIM
For another assay, the target named is KRas wild type (Homo sapiens (Human), UniProt P01116). Described as above. On the procedure:
as §2, §3, §4

Assay [4] concerns MAPK phosphorylation in the PANC-1 pancreatic cancer cell line. Kind of assay: MAPK cell-based phosphorylation assay (cell-direct ELISA, EGF-stimulated PANC-1). The following applies: Homo sapiens; for inhibition at 30 µM: PANC-1, 6 hours incubation, EGF stimulation; for inhibition at 10 µM: tested at 10 μM (*), PANC-1. On the procedure: Cell lines: Tumor-derived pancreatic cancer cell lines PANC-1 were purchased from ATCC and were maintained according to ATCC recommendation.
Method: Cells were plated at 7500 cells/well density in 96-wells plate, starved over night, and the small molecules to be tested were added to the cells in the final concentration of 30 μM with 0.3% DMSO for 6 hours incubation at 37° C. For IC50 value determination, serial dilutions of compounds were added to cells under the same conditions. Next, cells were stimulated with 1.5 ng/ml EGF for 15 min. followed by cell fixation with 4% Formaldehyde in PBS at RT for 20 min. Phosphorylation level of MAPK was determined by Cell-direct ELISA.
Cell-direct ELISA: For each well, cells were permeabilized with PBS-Triton 0.1%, quenched with H2O2 0.6% in PBS-Triton 0.1%, and probed with anti-phospho-MAPK antibodies (R&D Systems) followed by HRP-conjugated secondary antibody (Jackson Immunoresearch, West Grove, Pa.). Next, a solution 50 μM of the fluorescent substrate AmpliFlu Red (Sigma) was added and incubated at RT for 20 min. At the end of the incubation time, fluorescence was measured at 595 nm on a microplate reader (AF2200; Eppendorf, Inc., Hamburg, Germany).

The subject of assay [5] is MIA-PACA2 pancreatic cancer cell lines. Kind of assay: Cell proliferation assay, MIA-PACA2 (CellTiter 96 AQueous One, 6 days). It is filed as cell-based. The following applies: Homo sapiens, MIA PaCa-2, 144 h. On the procedure: as §1
Method: Cells are plated at 1000 cells/well density in 96-wells plate, starved ON, and the next day tested small molecules are added to the cells in the final concentration of 30 μM with 0.3% DMSO 3 hours prior to 10% FBS addition. After serum addition cells are incubated for 6 days at 37° C. in a humidified incubator with 5% CO2. For IC50 value determination, serial dilutions of compounds were added to cells under the same conditions.
Assay: At the end of the incubation period, cell cultures are tested using the CellTiter 96® AQueous One Solution Cell Proliferation Assay kit (Promega Corporation, Madison, Wis.) according to the manufacturer specifications. Briefly, assay is performed by adding 20 μl of the CellTiter 96 Aqueous One Solution Reagent directly to culture wells, followed by for 1-4 hours incubation at 37° C. in a humidified incubator with 5% CO2. At the end of incubation time, absorbance at 492 nm is recorded with the 96-well plate reader Eppendorf AF2200, and degree of small molecule-dependent proliferation inhibition is calculated from raw data assuming No Serum cells value as 100%.

For a further assay, the target named is Rac-1 (Homo sapiens (Human), UniProt P63000). Kind of assay: Rac and Rho inhibition assay (labeled GTP). To be noted: read-out: Rac-1 % Inh. It is filed as binding.
The target in the next assay is Rho-A (Homo sapiens (Human), UniProt P61586). Kind of assay: Rac and Rho inhibition assay (labeled GTP). The assay is classed as binding. To be noted: read-out: Rho-A % Inh.
Rho-A, sequence (P61586 whole entry): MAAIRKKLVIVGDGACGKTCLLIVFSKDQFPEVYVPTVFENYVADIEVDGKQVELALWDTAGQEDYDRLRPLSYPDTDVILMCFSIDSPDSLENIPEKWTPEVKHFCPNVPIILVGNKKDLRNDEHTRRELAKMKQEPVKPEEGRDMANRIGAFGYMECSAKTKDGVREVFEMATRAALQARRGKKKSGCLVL
Where [6] appears, read: 20 μM compound, read-out: % Inhibition at 20 μM, KRas G12D Q61H.
The mark [7] stands for this setting: compound at 20 μM, read-out: % Inhibition at 20 μM, KRas G12D Q61H.

Here are results for 25 compounds from patent publication US11000515B2, “Compounds that interact with the Ras superfamily for the treatment of cancers, inflammatory diseases, rasopathies, and fibrotic disease” (Shy Therapeutics LLC, priority 2017, dated 2021).

SMILES strings stand for the structures. Read-outs that look alike come from different tables or passages of the source.

KRas G12C mutant, sequence (P01116-2 other isoform, or with tags, fused parts or gaps G12C): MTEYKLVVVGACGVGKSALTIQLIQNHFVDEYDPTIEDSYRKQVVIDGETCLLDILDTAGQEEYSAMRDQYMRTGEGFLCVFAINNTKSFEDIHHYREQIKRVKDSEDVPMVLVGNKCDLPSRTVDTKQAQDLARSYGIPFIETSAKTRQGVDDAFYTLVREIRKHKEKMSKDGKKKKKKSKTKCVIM
KRas G12D/Q61H double mutant, sequence (P01116-2 other isoform, or with tags, fused parts or gaps G12D/Q61H): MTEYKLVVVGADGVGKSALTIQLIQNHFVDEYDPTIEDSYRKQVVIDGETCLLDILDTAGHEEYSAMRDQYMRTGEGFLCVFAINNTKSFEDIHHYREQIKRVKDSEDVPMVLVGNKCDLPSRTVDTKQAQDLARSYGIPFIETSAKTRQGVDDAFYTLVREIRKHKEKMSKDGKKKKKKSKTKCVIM
KRas G12D mutant protein, sequence (P01116-2 other isoform, or with tags, fused parts or gaps G12D): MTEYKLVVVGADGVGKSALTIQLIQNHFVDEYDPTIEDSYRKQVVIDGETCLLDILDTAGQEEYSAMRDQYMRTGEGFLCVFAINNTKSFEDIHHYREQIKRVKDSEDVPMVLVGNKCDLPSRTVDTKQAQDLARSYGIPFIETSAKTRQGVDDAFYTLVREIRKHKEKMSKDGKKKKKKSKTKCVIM
KRas wild type, sequence (P01116-2 other isoform, or with tags, fused parts or gaps): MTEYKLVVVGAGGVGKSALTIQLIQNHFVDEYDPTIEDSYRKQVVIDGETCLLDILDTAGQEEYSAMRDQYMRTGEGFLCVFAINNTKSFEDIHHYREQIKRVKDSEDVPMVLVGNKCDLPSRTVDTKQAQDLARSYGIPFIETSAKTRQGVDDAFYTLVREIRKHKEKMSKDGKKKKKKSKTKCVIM
KRas G12C/Q61H double mutant, sequence (P01116-2 other isoform, or with tags, fused parts or gaps G12C/Q61H): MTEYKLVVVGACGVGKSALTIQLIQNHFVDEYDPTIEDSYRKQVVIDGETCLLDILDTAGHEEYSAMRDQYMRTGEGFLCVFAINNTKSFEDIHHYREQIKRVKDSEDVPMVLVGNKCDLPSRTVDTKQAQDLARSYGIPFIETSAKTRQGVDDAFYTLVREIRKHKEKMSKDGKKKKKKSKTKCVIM

With `COc1ccc(-c2c(-c3ccccc3)sc3c(O)nc(-c4cccn4C)nc23)cn1`, in [1], the inhibition at 10 µM is 76 to 100%. The half-inhibitory concentration (IC50) (as a rule, the point on the concentration scale where inhibition reaches its midpoint) in assay [1] (MIA PaCa-2, same assay as % inhibition: alternate conditions) was 501 to 1000 nM.

As to `CCC(C)c1csc2c(O)nc(-c3ccccn3)nc12` (stereo not shown) [drawing 3492], the inhibition at 20 µM at KRas G12D mutant protein (20 μM compound) was in the range of 25 to 50%; at KRas G12C mutant (20 μM compound), 25 to 50%; in [2] (20 μM compound), 51 to 75%; in assay [3] (setting [6]), 51 to 75%; on KRas Q61H mutant (20 μM compound) it was 51 to 75%; on KRas wild type (20 μM compound), 25 to 50%.

`N#Cc1ccc(CC(=O)Nc2ccnc(-c3ccccn3)n2)cc1` came in with an inhibition at 30 µM in assay [4] of 1 to 25%.

For `OC[C@H]1O[C@@H](c2csc3c2N=C(c2ccccn2)NC3O)[C@H](O)[C@@H]1O` (stereo partly shown), the inhibition at 20 µM at KRas G12D mutant protein (20 μM compound) lay in the range of 25 to 50%; on KRas G12C mutant (20 μM compound), 51 to 75%; in assay [2] (20 μM compound), 25 to 50%; in [3] (setting [6]), 25 to 50%; on KRas Q61H mutant (20 μM compound) it was 51 to 75%; on KRas wild type (20 μM compound) it was 25 to 50%.

With `COC(=O)c1cc(NCc2nc(CC(C)C)no2)ccc1Cl`, in assay [4], the inhibition at 30 µM is 1 to 25%.

As for `Oc1nc(-c2ccccn2)nc2c(-c3ccccn3)csc12`, the inhibition at 10 µM in [4] was in the range of 76 to 100%.

On to `COc1ccc(CCC(=O)Nc2nc(-c3ccccn3)nc3sccc23)cn1`, for which, in [4], the inhibition at 10 µM was 76 to 100%.

Turning to `O=C(CCn1ccnc1)Nc1nc(-c2ccccn2)nc2sccc12`, the inhibition at 30 µM in [5] lay in the range of 76 to 100%.

In [5], `COc1cnc(CN)[nH]c1=O` returned an inhibition at 30 µM of 51 to 75%.

Compound `Cc1cccc(-c2c(-c3ccccc3)sc3c(O)nc(-c4nccn4C)nc23)c1` came in with an inhibition at 10 µM in [1] of 25 to 50%.

Turning to `CN(CCCc1n[nH]c(N)c1C#N)c1nc(-c2ccccn2)nc2sc(-c3ccccc3)cc12`, in [5], the inhibition at 30 µM lay within 76 to 100%.

Regarding `NC(=O)C1CCN(c2nc(-c3ccccn3)nc3scc(-c4ccccc4)c23)CC1`, the inhibition at 30 µM in assay [5] lay in the range of 76 to 100%.

Regarding `Cc1nc(-c2ccccn2)nc(O)c1CCC(=O)Nc1ccc(C(C)C)cc1`, the inhibition at 30 µM in assay [4] lay in the range of 1 to 25%.

As to `COC1CN=C(CNC(=O)c2cc3nc(-c4ccccn4)nc(O)c3s2)NC1=O` (stereo not shown), the inhibition at 20 µM in assay [3] (at 20 μM, read-out: KRas Gl2D Q61H % Inh.) is 25 to 50%; at Rac-1, 51 to 75%; at Rho-A, 51 to 75%.

`COOCCCCNC(=O)c1csc2nc(-c3ccccn3)nc(N3CCOCC3)c12` displayed an inhibition at 30 µM in assay [4] of 1 to 25%.

Consider `OCCn1ncc2c1CCCC2Nc1nc(-c2ccccn2)nc2scc(-c3ccccc3)c12` (stereo not shown), for which the inhibition at 30 µM in [5] was in the range of 76 to 100%.

`CN(C)COc1ccc(-c2csc3c(O)nc(-c4ccccn4)nc23)cn1`: the inhibition at 20 µM (at KRas G12D mutant protein (compound at 20 μM); at KRas G12C mutant (compound at 20 μM); in [2] (compound at 20 μM); in assay [3] (setting [7]); at KRas Q61H mutant (compound at 20 μM); on KRas wild type (compound at 20 μM)) was 51 to 75% throughout.

`Cn1ccnc1-c1nc(O)c2scc(-c3cccc(OC(F)(F)F)c3)c2n1`: the inhibition at 10 µM in assay [4] lay in the range of 25 to 50%.

In assay [1], `Oc1cccc(-c2csc3c(O)nc(-c4ccccn4)nc23)n1` had an inhibition at 10 µM of 76 to 100%.

Regarding `O=C(CCC1N=NN=N1)Nc1nc(-c2ccccn2)nc2sccc12`, the inhibition at 20 µM on KRas G12D mutant protein (compound at 20 μM) lay within 51 to 75%; at KRas G12C mutant (compound at 20 μM), 25 to 50%; in assay [2] (compound at 20 μM), 51 to 75%; in [3] (setting [7]), 51 to 75%; at KRas Q61H mutant (compound at 20 μM) it was 51 to 75%; at KRas wild type (compound at 20 μM) it was 51 to 75%.

Consider `Oc1nc(-c2ccccn2)nc2ccsc12`, for which the inhibition at 20 µM on KRas G12D mutant protein (compound at 20 μM) lay within 1 to 25%; at KRas G12C mutant (compound at 20 μM), 25 to 50%; in [2] (compound at 20 μM) it was 25 to 50%; in assay [3] (setting [7]) it was 25 to 50%; on KRas Q61H mutant (compound at 20 μM), 51 to 75%; at KRas wild type (compound at 20 μM), 1 to 25%.

For `COCC(C)Nc1nc(-c2ncccn2)nc2sc(-c3ccncc3)c(-c3ccccc3)c12` (stereo not shown), in assay [1], the inhibition at 10 µM lay in the range of 51 to 75%.

Regarding `O=C(Nc1nnc(-c2ccccn2)[nH]1)c1ccc(Cc2ccccc2)nc1`, the inhibition at 30 µM in assay [5] was in the range of 51 to 75%.

As to `COc1ccnc(-c2nc(O)c3c(C#N)csc3n2)c1`, the inhibition at 20 µM lay in the range of 51 to 75% on Rac-1 and 25 to 50% on Rho-A.

As for `COc1ccc(COC[C@H]2O[C@@H](c3csc4c(=O)[nH]c(-c5ccccn5)nc34)[C@H](O)[C@@H]2O)cc1`, the values for the inhibition at 20 µM on Rac-1 and at Rho-A were 51 to 75% and 76 to 100%, respectively.
